Measured values reported in patent publication US20090170899A1, “Stimulators of 5-HT4 receptors and uses thereof” (priority 2004, published 2009).

Legend:
Format in all cases: in vivo, rat
[1] = system: hippocampal CA3 pyramidal neurons; test: Response of hippocampal CA3 pyramidal neurons to WAY 100635 after 3-day treatments (5-HT1A tonus); details: for 5-HT1A-mediated inhibitory tonus in the hippocampus: Example 7, 3 days, prucalopride 2.5, citalopram 10, RS 67333 1.5 mg/kg/day
Description: FIGS. 8A to 8C. […] Single-cell extracellular recordings were performed in the CA3 region of chloral-hydrate anaesthetized rats by using multiple-barrel glass microelectrodes, combined with microiontophoretic pumps (with the central barrel used for recordings). Pyramidal neurons were identified according to the classical criteria (see Example 5, the experimental procedures). The 5-HT4 agonists were administered through the use of osmotic minipumps, inserted subcutaneously in the region of the back. Recordings were performed with the minipumps still in place. *p<0.05, **p<0.01, ***p<0.001 vs control, Dunnett's test. […] FIG. 8C is a typical example showing the response of a single pyramidal neuron to cumulative doses of WAY 100635, in a rat co-administered with RS 67333 (same treatment as above for FIG. 8A) and the 5-HT depleter para-chlorophenylalanine (pCPA; 150 mg/kg, i.p. once daily 72, 48 and 24 h before the recordings).
(§1) Drugs and Chemicals. The following compounds were used: GR 125487 sulphamate, prucalopride monohydrochloride, citalopram hydrobromide (gifts from Glaxo, Janssen and Lundbeck laboratories, respectively), RS 67333 hydrochloride (Tocris Cookson Inc., Ellisville, Mo., USA), WAY 100635 hydrochloride (Research Biochemicals, Natick, Mass., USA), pCPA methyl ester hydrochloride, BrdU (Sigma-Aldrich Canada, Oakville, Ontario, Canada). All compounds were diluted in distilled water. All drug dosages refer to the free base. For chronic treatments, prucalopride (2.5 mg/kg/day), RS 67333 (1.5 mg/kg/day) or the vehicle were delivered through osmotic minipumps (Alza, Palo Alto, Calif., USA), inserted subcutaneously in the region of the back under short-duration (≦5 min) halothane anesthesia. The 5-HT depleter PCPA was administered once daily at the dose of 150 mg/kg, i.p., 72, 48 and 24 h before the recordings. BrdU treatments consisted of two administrations per day (50 mg/kg, i.p. each, 8 h interval), starting from the day of minipump insertion until day 2 post-surgery.
Microiontophoresis and extracellular recordings from hippocampal CA3 pyramidal neurons. Recording and microiontophoresis were performed with five-barreled glass micropipettes broken back to 8-12 μm under microscope control. The central barrel was filled with the same solution as in the DRN and was used for extracellular unitary recordings. Pyramidal neurons were identified by their large amplitude (0.5-1.2 mV) and long-duration (0.8-1.2 ms) simple spikes alternating with complex spike discharges (Kandel and Spencer, 1961). The side barrels contained the following solutions: quisqualate (1.5 mM in 200 mM NaCl, pH 8), WAY 100635 (15 mM in 200 mM NaCl, pH 4), and 2 M NaCl used for automatic current balancing. Rats were mounted in the stereotaxic apparatus and the micropipettes were lowered at 4.2 mm lateral and 4.2 anterior to lambda into the CA3 sub-region of the dorsal hippocampus.
The firing activity of dorsal hippocampus pyramidal neurons was then recorded in the CA3 subfield, before and after systemic administration of the selective 5-HTLA antagonist WAY 100635.

[2] = system: BrdU-positive cells in the sub-granular zone (SGZ) of the hippocampus; test: Hippocampal neurogenesis (BrdU-positive cells) after 3-day treatment; details: RS 67333 1.5 mg/kg/day, 3 days
Description: A and B: Photomicrographs (magnification: 10× and 100× for the small rectangles) representative of the control and RS 67333 group, respectively. Clusters of positive cells were found in the presence of RS 67333 (small rectangles). RS 67333 was administered through the use of osmotic minipumps, inserted subcutaneously in the region of the back. Rats received intraperitoneal injections of BrdU at the dose of 50 mg/kg twice daily (8 h interval), starting from the day of minipump insertion until day 2 post-surgery.
as §1, with “The 5-HT depleter PCPA was administered once daily at the dose of 150 mg/kg, i.p., 72, 48 and 24 h before the recordings. BrdU treatments consisted of two administrations per day (50 mg/kg, i.p. each, 8 h interval), starting from the day of minipump insertion until day 2 post-surgery.” left out

DRN 5-HT neurons = test: Reversal by acute prucalopride of the inhibition of DRN 5-HT neuron firing rate induced by i.v. SSRIs
From the text: FIGS. 6A and 6B illustrate the effect of prucalopride on the inhibition of 5-HT neuronal firing rate induced by SSRIs fluxoamine and citalopram.
In FIGS. 6A and 6B, the firing activity of the 5-HT neuron is suppressed following the acute intravenous administration of the antidepressant SSRIs fluvoxamine and citalopram. This suppression of the firing activity is due to the activation of the 5-HT1A autoreceptors, subsequent to the increase of the concentration of endogenous 5-HT, following the blockade of the 5-HT reuptake sites.

[3] = cumulative i.v. WAY 100635 500 μg/kg, 3-day prucalopride 2.5 mg/kg/day or RS 67333 1.5 mg/kg/day

Row | SMILES | CA3 pyramidal neuron activity after WAY 100635 ([1]; 3-day RS 67333, as restated in the Discussion) | quisqualate ejection currents required to obtain basal firing ([1]; 3-day treated groups, controls 0 to −2 nA) [nA] | 5-HT1A-mediated inhibitory tonus in the hippocampus [1] | firing activity of CA3 pyramidal neurons after WAY 100635 ([1]; cumulative i.v. WAY 100635 200 μg/kg, 3-day RS 67333 1.5 mg/kg/day) | firing activity of CA3 pyramidal neurons after WAY 100635 ([1]; cumulative i.v. WAY 100635 300 μg/kg, 3-day RS 67333 1.5 mg/kg/day) | firing activity of CA3 pyramidal neurons after WAY 100635 [1, 3] | size of clusters of BrdU-positive cells [2] [clones] | density of BrdU-positive cells in the SGZ ([2]; control 44.9±17.2) [per mm^2] | share of 5-HT neurons in which the suppression is reversed (DRN 5-HT neurons; acute prucalopride) | effect of prucalopride on SSRI-induced suppression of 5-HT neuron firing (DRN 5-HT neurons; acute prucalopride after fluvoxamine or citalopram i.v.)
1 | CCCCN1CCC(CCC(=O)c2cc(Cl)c(N)cc2OC)CC1 [RS 67333, 1-(4-amino-5-chloro-2-methoxyphenyl)-3-(1-n-burtl-4-piperidinyl)-1-propanone] | up to 440 % of pre-drug values | −4 to −6 | strong tonic inhibition | 276 (±52) % of basal values | 378 (±43) % of basal values | 445 (±60) % of baseline | 6 to 10 | 200.2±44.9 |  | 
2 | COCCCN1CCC(NC(=O)c2cc(Cl)c(N)c3c2OCC3)CC1 [prucalopride] |  |  | modest inhibitory tonus |  |  | 191 (±31) % of baseline |  |  | about one-half | partially reverse
